Measurements: PMC11920571, “Esc peptides and derivatives potentiate the activity of CFTR with gating defects and display antipseudomonal activity in cystic fibrosis-like lung disease” (Cellular and Molecular Life Sciences: CMLS, 2025)
Non-standard residues stand in square brackets, D forms with d. Residues, ends and D or L forms follow the SMILES beside them. No end group written: not given here. Aib = CC(C)(N)C(=O)O

Key:
G551D-CFTR = target: T1, G551D-CFTR (Homo sapiens, UniProt P13569, G551D); experiment: TEER/transepithelial conductance in G551D-FRT cells; format: cell-based; conditions: 20 µM FSK + 10 µM peptide, 10 min, n ≥ 6
T1 construct: expressed in transfected cells
Experimental: (§1) To evaluate the effect of the peptides on the ion current controlled by CFTR, the transepithelial conductance was measured in epithelia formed by FRT expressing CFTR with different mutation. Cells were seeded on permeable supports (24 Millicell plates PSHT01QR1) and then incubated in their standard culture medium. Cells expressing F508del mutation were pretreated with 1 μM VX-809 to deliver the defective protein to the plasma membrane. After 24 h, the medium was replaced with saline solution containing (in mM): 130 NaCl, 2.7 KCl, 1.5 KH2PO4, 1 CaCl2, 0.5 MgCl2, 10 glucose, 10 Na-Hepes (pH, 7.4), which was added to both apical and basolateral compartments of the permeable supports. Initially, TEER was measured in basal conditions without CFTR activation, using the epithelial voltmeter (MILLICELL ERS-2, Millipore Burlington, MA). Afterwards, 20 μM FSK + 10 μM GEN (as positive control) or FSK+ peptides at the desired concentration were added on the apical side of the epithelium and TEER measurement was performed at 37 °C after 10 min from the addition of the compounds. Finally, TEER was measured after the addition of 30 μM PPQ102 to the apical side of the epithelium, to inhibit CFTR. From the values of TEER obtained before and after CFTR inhibition, the CFTR-dependent TEER was calculated, for each condition. All TEER values were converted to transepithelial conductance (TEEC) using the formula TEEC = 1/TEER [68].

[1] = system: Gram-negative bacterial strains and Staphylococcus aureus; experiment: MIC determination, summary over the strain panel; format: cell-based; conditions: summary of Table 3
Experimental: Peptides were tested against the Gram-negative Escherichia coli ATCC 25922, Ainetobacter baumannii ATCC 19606, P. aeruginosa ATCC 27853, P. aeruginosa PAO1; and the Gram-positive S. aureus ATCC 25923, MDR#1, MDR#2, MDR#3 and MDR#4. The MIC values were determined as previously reported. Briefly, bacteria were grown at 37 °C in Luria-Bertani broth (LB) until an optical density (OD) of 0.8 was reached (λ=590 nm). Aliquots of bacteria (50 µL) were added to each well of a 96-multiwell plate containing serial dilutions of the tested peptides in Mueller Hinton broth (MH). The final cell concentration was 1x10^6 CFU/ml.

G1349D-CFTR = target: T2, G1349D-CFTR (Homo sapiens, UniProt P13569, G1349D); experiment: TEER/transepithelial conductance in G1349D-FRT cells; format: cell-based; conditions: 20 µM FSK + 10 µM peptide, 10 min, n ≥ 6
T2 construct: expressed in transfected cells
Experimental: as §1

P. aeruginosa PAO1 [2] = experiment: Co-culture (biotic biofilm) on polarized airway epithelium at ALI; format: cell-based; conditions: 20 μM peptide in PBS for 2 h; PAO1 grown 6 h on polarized homozygous F508del airway epithelium at ALI; vs PBS
Experimental: This assay was performed using co-cultures of polarized and well-differentiated human bronchial epithelial cells derived from a homozygous F508del patient and P. aeruginosa PAO1 grown to a log phase. Polarized human epithelia in transwell permeable supports and maintained in ALI culture were inoculated with P. aeruginosa PAO1 in 50 µl of cell culture medium (initial inoculum of 200 bacterial cells per ALI culture insert, according to [75]) at the apical side of the supports for 1 h to allow attachment of the bacteria to the epithelium in ALI culture. Unattached bacteria were removed and the supports incubated (37 °C; 5% CO₂) for 5 h prior to the addition of peptide. Each peptide, at 20 μM, diluted in 100 µl PBS, was added for 2 h. After a total of 8 h, the airways surface liquid was collected and aliquots poured on plates for counting. Afterwards, the epithelium was disrupted by adding 150µl Tripsin-EDTA and incubated for 15 min. Subsequently, 200 µl Triton X-100 (0.1%) was added and the supports incubated again for 15 min. Serial dilution and counting of bacterial cells was performed on tryptic soy agar plates to determine the number of CFU.

F508del-CFBE41o- cells = conditions: 20 μM peptide, 24 h, CCK-8, absorbance 450 nm
Experimental: The Cell Counting Kit 8 (CCK-8) assay was performed as follows to assess cell viability. About 1×10^4 F508del-CFBE41o- cells were seeded in each well of a 96-well plate and incubated at 37 °C and 5% CO2. After 24 h, the medium was replaced by MEM supplemented with 2 mM L-glutamine and containing each peptide at different concentrations. The plate was incubated for 24 h and subsequently 10 μl of CCK-8 reagent were added to each well. After 2 h incubation, the absorbance of each well was measured at 450 nm using a microplate reader (Infinite M200; Tecan, Salzburg, Austria).

P. aeruginosa PAO1 [3] = experiment: Murine lung infection model, wild-type littermates; format: in vivo, mice; conditions: 0.1 mg/kg (20 μM) i.t. 1 h after i.t. ~3 x 10^6 CFU PAO1, lungs at 24 h, three independent experiments
Experimental: (§2) The animal experiments were performed according to a protocol (protocol 23083347) approved by the Institutional Animal Care and Use Committee (IACUC) of the University of Pittsburgh based on the NIH guide for the care and use of laboratory animals. Transgenic mice with expression of the protein-coding region of the mouse Scnn1b (β-ENaC) and driven by rat airway-specific Scgb1a1 (also called the Clara cell secretory protein) gene were previously described and obtained from Dr. Wanda O'Neal from the University of North Carolina at Chapel Hill. β-ENaC mice in C57BL/6 genetic background were maintained in heterozygous conditions and continuously bred with C57BL/6 wild-type mice. Genotyping was performed for all pups to identify their respective genotypes. Mice expressing β-ENaC and their wild-type littermates at the same ages were used for experiments. Seven-week-old female and male mice were anesthetized by isoflurane inhalation and instilled intratracheally with ~3 x 10^6 CFU of P. aeruginosa PAO1 in 50 µl PBS. […] Control mice were given 50 µl of PBS without peptide. After 24 h, lungs were harvested, four right lobes of each mouse lung were homogenised, serial diluted to determine the total lung bacterial burden, according to the published method.

P. aeruginosa PAO1 [4] = experiment: Murine lung infection model, β-ENaC transgenic mice; format: in vivo; conditions: for lowering of lung bacterial burden (CFU): 0.1 mg/kg (20 μM) i.t. 1 h after i.t. ~3 x 10^6 CFU PAO1, lungs at 24 h, three independent experiments
Experimental: as §2

P. aeruginosa = conditions: C57BL/6 mice, i.t. instillation at 0.1 mg/Kg (corresponding to 20 μM); cited from earlier work
Text: In the last years, we identified two antimicrobial peptides (AMPs), Esculentin-1a(1–21)NH2 [Esc(1–21)] and its diastereomer Esc(1–21)−1c (Esc peptides, Table 1), with a strong activity against the free-living and sessile forms of P. aeruginosa and with the ability to accelerate recovery of damaged bronchial epithelium.

[5] = system: intracellular calcium in null FRT cells; experiment: Microplate reader Fluo-4 Ca2+ assay; format: cell-based, rat; conditions: peptides 10 µM each, UTP 100 µM (Fig. 7) or 10 µM (method), acute addition
Experimental: Experiments for the evaluation of intracellular calcium mobilization were performed using an automated micro-plate reader (FluoStar) equipped with syringe pumps and optical excitation/emission filters (500/535 nm). FRT cells were cultured until confluence in 96-well microplates. Before starting the assay, cells were washed 3 times with complete PBS (200 μl/wash) and then loaded for 1 h at 37 °C with 5 μM Fluo-4/AM (Thermo Fisher Scientific) in PBS containing 10 mM glucose, 0.5 mM sulfinpyrazone and 1% fetal bovine serum. After loading, cells were washed twice with PBS (120 μl/wash) and incubated for 15 min at 37 °C with 100 μl of PBS plus 10 mM glucose and 0.5 mM sulfinpyrazone. The assay was run on one well at a time by programming the plate reader to acquire the fluorescence emitted from each well every 0.2 s for 120 s. At 2.8 s from the start of reading, the plate reader injected 100 μl of PBS (with glucose and sulfinpyrazone) containing vehicle alone (DMSO), peptides (10 µM each) or UTP (10 µM).

T1 sequence (P13569 whole entry G551D): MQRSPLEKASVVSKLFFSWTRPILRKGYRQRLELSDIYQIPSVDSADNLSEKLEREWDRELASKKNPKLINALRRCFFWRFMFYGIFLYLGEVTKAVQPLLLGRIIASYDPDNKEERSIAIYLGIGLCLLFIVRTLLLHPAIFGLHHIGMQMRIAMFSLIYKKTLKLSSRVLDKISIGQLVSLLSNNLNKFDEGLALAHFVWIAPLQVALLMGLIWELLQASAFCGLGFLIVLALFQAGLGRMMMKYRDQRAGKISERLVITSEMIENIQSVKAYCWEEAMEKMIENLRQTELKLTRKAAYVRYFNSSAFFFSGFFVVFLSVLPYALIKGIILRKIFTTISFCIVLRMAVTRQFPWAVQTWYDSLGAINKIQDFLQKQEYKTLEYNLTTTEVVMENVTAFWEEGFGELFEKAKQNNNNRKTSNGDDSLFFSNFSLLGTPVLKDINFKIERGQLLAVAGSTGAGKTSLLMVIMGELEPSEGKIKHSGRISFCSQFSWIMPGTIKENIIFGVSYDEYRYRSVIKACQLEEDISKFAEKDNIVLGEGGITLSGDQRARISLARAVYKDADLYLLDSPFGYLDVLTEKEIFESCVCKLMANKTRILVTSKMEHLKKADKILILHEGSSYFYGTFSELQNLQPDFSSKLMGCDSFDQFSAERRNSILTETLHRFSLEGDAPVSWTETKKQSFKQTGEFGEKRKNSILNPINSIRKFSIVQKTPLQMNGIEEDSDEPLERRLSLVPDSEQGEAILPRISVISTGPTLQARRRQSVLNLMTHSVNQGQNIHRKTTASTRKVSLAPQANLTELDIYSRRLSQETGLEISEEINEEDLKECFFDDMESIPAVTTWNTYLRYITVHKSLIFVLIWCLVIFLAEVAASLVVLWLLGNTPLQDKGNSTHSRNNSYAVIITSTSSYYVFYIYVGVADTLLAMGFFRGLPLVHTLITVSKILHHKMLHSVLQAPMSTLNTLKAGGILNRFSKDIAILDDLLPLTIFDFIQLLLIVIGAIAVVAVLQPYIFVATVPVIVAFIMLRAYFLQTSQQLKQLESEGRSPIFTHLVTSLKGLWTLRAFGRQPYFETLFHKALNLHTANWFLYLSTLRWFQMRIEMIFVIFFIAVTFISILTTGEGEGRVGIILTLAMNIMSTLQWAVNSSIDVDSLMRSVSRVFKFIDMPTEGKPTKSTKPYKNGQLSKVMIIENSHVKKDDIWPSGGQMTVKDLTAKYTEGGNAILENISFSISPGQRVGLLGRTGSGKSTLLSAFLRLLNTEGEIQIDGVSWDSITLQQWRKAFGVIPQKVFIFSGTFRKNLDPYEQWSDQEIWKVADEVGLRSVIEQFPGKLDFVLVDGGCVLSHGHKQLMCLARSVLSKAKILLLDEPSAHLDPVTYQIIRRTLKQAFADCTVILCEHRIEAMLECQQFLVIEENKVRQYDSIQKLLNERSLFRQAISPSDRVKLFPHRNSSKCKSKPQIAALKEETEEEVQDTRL
T2 sequence (P13569 whole entry G1349D): as the sequence (P13569 whole entry G551D) above, with D551G, G1349D counted along it

Molecule: GIFSKLAGKKIKNLLIEGLKG-NH2 [Esc_Glu-17, analog containing L-Glutamic acid at position 17]
- variation in CFTR-mediated conductance (G551D-CFTR): no variation in CFTR-mediated conductance
- ability to inhibit bacterial growth, in words [1]: comparable to the reference Esc(1–21)−1c
- variation in CFTR-mediated conductance (G1349D-CFTR): no variation in CFTR-mediated conductance

Molecule: Gly-Ile-Phe-Ser-Lys-Leu-Ala-Gly-Lys-Lys-Ile-Lys-Asn-Leu-Leu-Ile-phosphoSer-Gly-Leu-Lys-Gly-NH2 [D-phosphoEsc, isoform carrying a D-leucine at position 14 and D-phosphoserine at position 17]
- CFTR-mediated conductance (∆G) relative to FSK alone (G551D-CFTR): at least 3 fold
- CFTR-mediated conductance (∆G) relative to FSK alone (G1349D-CFTR): at least 3 fold

Molecule: CC[C@H](C)[C@H](NC(=O)CN)C(=O)N[C@@H](Cc1ccccc1)C(=O)N[C@@H](CO)C(=O)N[C@@H](CCCCN)C(=O)N[C@@H](CC(C)C)C(=O)N[C@@H](C)C(=O)NC(C)(C)C(=O)N[C@@H](CCCCN)C(=O)N[C@@H](CCCCN)C(=O)N[C@H](C(=O)N[C@@H](CCCCN)C(=O)N[C@@H](CC(N)=O)C(=O)N[C@@H](CC(C)C)C(=O)N[C@@H](CC(C)C)C(=O)N[C@H](C(=O)N[C@@H](CO)C(=O)NCC(=O)N[C@@H](CC(C)C)C(=O)N[C@@H](CCCCN)C(=O)NCC(N)=O)[C@@H](C)CC)[C@@H](C)CC [Esc_Aib-8, [Aib^8]-Esc(1–21)] (H-GIFSKLA[Aib]KKIKNLLISGLKG-NH2; N-terminus assumed)
- reduction of bacterial load (ASL plus intracellular CFU) (P. aeruginosa PAO1 [2]): ~2 log10-unit
- viable cells (F508del-CFBE41o- cells): more than 90%
- reduction in the number of lung bacterial cells (CFU) (P. aeruginosa PAO1 [3]): ~ 2 log10
- ability to inhibit bacterial growth, in words [1]: the most active one against Gram-negative bacteria
- lowering of lung bacterial burden (CFU) (P. aeruginosa PAO1 [4]): ~ 2 log10
- efficacy in lowering lung bacterial load, comparison in words (P. aeruginosa PAO1 [4]; 0.1 mg/kg i.t., lungs at 24 h): trend slightly stronger than that of Esc(1–21)−1c

Molecule: GIFSKLAGKKIKNLLISGLKG-NH2 [Esc(1–21)−1c, diastereomer of Esc(1–21)]
- reduction in the number of lung bacterial cells (CFU) (P. aeruginosa PAO1 [3]): ~ 2 log10
- effect on lung bacterial burden (P. aeruginosa): reduce lung bacterial burden
- lowering of lung bacterial burden (CFU) (P. aeruginosa PAO1 [4]): ~ 2 log10

Molecule: colistin [reference compound]
- reduction in the number of lung bacterial cells (CFU) (P. aeruginosa PAO1 [3]): ~ 2 log10

Molecule: O=c1ccn([C@@H]2O[C@H](COP(=O)(O)OP(=O)(O)OP(=O)(O)O)[C@@H](O)[C@H]2O)c(=O)[nH]1 [UTP]
- change in Fluo-4 fluorescence (intracellular calcium) [5]: marked and rapid increase in fluorescence

Molecule: GIFSKLAGKKIKNLLIEGLKG-NH2 [Esc-1C_DGlu-17, analog containing D-Glutamic acid at position 17]
- variation in CFTR-mediated conductance (G551D-CFTR): no variation in CFTR-mediated conductance
- MIC increase versus reference Esc(1–21)−1c [1]: ~ 4 fold
- variation in CFTR-mediated conductance (G1349D-CFTR): no variation in CFTR-mediated conductance
